This is an account of results in patent publication US12492193B2, “Pyrazole derivatives for the treatment of cystic fibrosis” (Fondazione Istituto Italiano Di Tecnologia, priority 2017, dated 2025).

Structures are written as SMILES.

The target in this experiment is T1, mutant CFTR (Homo sapiens, UniProt P13569, DEL508-508).
T1 construct: expressed in transfected cells
As to the kind of experiment: Fluorescence (HS-YFP) assay for CFTR activity, corrector assay. The following applies: CFBE41o- and FRT cells with stable expression of mutant CFTR, 24 h compound treatment. Type of experiment: cell-based. The method, then: Fluorescence Assay for CFTR Activity
Mutant CFTR activity was determined with the functional assay based on the halide-sensitive yellow fluorescent protein, HS-YFP (Galietta et al., FEBS Lett 499: 220-224, 2001). CFBE41o- and FRT cells with stable expression of mutant CFTR and HS-YFP were plated on clear-bottom 96-well black microplates (Code 3603, Corning Life Sciences) at a density of 50,000 cells/well and kept at 37° C. in 5% CO2 for 24 hours. For the corrector assay, cells were treated for further 24 hours with test compounds, vehicle (DMSO), or the positive control VX-809. After treatment, the culture medium was removed and cells in each well were stimulated for 30 min at 37° C. with 60 μL PBS (containing 137 mM NaCl, 2.7 mM KCl, 8.1 mM Na2HPO4, 1.5 mM KH2PO4, 1 mM CaCl2, and 0.5 mM MgCl2) plus forskolin (20 μM) and genistein (50 μM).
For determination of potentiator activity on G551D-CFTR or G1349D-CFTR, cells were directly stimulated with forskolin plus test compound without previous incubation at low temperature. At the time of assay, microplates carrying CFBE41o- or FRT cells were transferred to microplate readers (BMG Labtech) equipped with high-quality excitation (HQ500/20X: 500±10 nm) and emission (HQ535/30M: 535±15 nm) filters for YFP (Chroma Technology). The assay consisted of a continuous 14 s fluorescence reading with 2 s before and 12 s after injection of an iodide-containing solution (165 μL of a modified PBS containing I^− instead of Cl^−; final I^− concentration in the well: 100 mM). Data were normalized to the initial background-subtracted fluorescence. Enhanced CFTR activity, induced by correctors and/or potentiators, results in accelerated I^− influx that in turn causes faster HS-YFP quenching (Pedemonte et al., Mol Pharmacol 68:1736-1746, 2005; Pedemonte et al., J Clin Invest 115:2564-2571, […]). To determine fluorescence quenching rate associated with I^− influx, the […] 10 s of data for each well were fitted with an exponential function to extrapolate initial slope (dF/dt).
EC50 obtained are illustrated in table 1 wherein +: EC50>2 μM; ++: 1.0 μM<EC50<2 μM; +++: EC50<1 μM.

T1 sequence (P13569 with tags, fused parts or gaps DEL508-508): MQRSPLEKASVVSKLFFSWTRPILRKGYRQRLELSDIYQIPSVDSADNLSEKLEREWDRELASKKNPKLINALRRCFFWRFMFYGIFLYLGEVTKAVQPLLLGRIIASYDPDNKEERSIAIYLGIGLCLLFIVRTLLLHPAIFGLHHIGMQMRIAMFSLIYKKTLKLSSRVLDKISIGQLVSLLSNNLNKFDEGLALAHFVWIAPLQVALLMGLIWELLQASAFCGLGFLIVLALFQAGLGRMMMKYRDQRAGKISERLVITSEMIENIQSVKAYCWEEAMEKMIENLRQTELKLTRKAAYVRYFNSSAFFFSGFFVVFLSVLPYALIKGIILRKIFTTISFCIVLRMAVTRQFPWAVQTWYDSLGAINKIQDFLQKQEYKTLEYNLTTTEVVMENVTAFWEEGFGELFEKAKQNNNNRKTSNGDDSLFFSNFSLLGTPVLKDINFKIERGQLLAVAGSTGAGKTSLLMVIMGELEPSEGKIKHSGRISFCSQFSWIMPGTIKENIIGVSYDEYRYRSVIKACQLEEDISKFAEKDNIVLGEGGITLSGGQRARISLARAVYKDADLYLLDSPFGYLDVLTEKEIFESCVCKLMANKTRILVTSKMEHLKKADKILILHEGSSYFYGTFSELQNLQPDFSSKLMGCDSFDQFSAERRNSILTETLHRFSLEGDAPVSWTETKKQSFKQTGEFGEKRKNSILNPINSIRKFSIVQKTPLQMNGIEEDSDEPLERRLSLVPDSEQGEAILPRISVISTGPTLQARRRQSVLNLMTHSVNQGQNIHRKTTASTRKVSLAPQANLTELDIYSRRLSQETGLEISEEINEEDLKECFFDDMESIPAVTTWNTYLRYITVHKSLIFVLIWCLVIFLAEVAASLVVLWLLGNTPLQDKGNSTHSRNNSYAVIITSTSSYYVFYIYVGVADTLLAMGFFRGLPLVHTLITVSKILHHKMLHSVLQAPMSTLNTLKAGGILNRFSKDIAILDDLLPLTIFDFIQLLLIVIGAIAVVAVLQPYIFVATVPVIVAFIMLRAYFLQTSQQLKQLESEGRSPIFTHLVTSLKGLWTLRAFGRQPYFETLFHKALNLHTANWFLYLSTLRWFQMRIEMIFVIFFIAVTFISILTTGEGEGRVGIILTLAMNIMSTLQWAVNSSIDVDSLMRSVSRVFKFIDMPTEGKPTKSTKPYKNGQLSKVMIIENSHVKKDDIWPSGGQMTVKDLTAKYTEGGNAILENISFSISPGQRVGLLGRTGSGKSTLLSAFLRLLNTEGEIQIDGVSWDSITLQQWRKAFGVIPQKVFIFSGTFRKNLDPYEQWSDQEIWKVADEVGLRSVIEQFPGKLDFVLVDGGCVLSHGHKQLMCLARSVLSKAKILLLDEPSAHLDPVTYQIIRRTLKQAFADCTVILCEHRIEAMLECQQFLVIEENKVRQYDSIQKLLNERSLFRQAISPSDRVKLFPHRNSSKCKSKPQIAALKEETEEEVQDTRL

By EC50 is commonly meant the midpoint of the concentration-response curve. As to `CN(C(=O)c1cccc(-n2nc(C(F)(F)F)cc2OC2CCC(C(=O)O)CC2)c1)c1ccc2c(c1)OCO2` (mixture of isomers) [compound 215, 4-[2-[3-[1,3-benzodioxol-5-yl(methyl)carbamoyl]phenyl]-5-(trifluoromethyl)pyrazol-3-yl]oxycyclohexane carboxylic acid], the EC50 is below 1 µM.

For the molecule `Cc1nn(-c2cccc(C(=O)N(C)c3ccc4c(c3)OCO4)c2)c([C@H](O)c2ccccc2)c1Cl` (racemic) [compound 109, N-(1,3-benzodioxol-5-yl)-3-[4-chloro-5-[(rac)-hydroxy(phenyl)methyl]-3-methyl-pyrazol-1-yl]-N-methyl-benzamide], the EC50 is below 1 µM.

`Cc1nn(-c2cccc(C(=O)N(C)c3ccc4c(c3)OCO4)c2)c([C@@H](C)O)c1Cl` (racemic) [compound 114, N-(1,3-benzodioxol-5-yl)-3-[4-chloro-5-[(rac)-1-hydroxyethyl]-3-methyl-pyrazol-1-yl]-N-methyl-benzamide]: the EC50 is above 2 µM.

`CO[C@H](c1ccccc1)c1c(Cl)c(C)nn1-c1cccc(C(=O)N(C)c2ccc3c(c2)OCO3)c1` (racemic) [compound 117, N-(1,3-Benzodioxol-5-yl)-3-[4-chloro-5-[(rac)-methoxy (phenyl)methyl]-3-methyl-pyrazol-1-yl]-N-methyl-benzamide]: the EC50 was below 1 µM.

Regarding `Cc1nn(-c2cccc(C(=O)Nc3ccc4c(c3)OCCO4)c2)c(C)c1Cl` [Int-002, 3-(4-Chloro-3,5-dimethyl-pyrazol-1-yl)-N-(2,3-dihydro-1,4-benzodioxin-6-yl)benzamide], the EC50 is above 2 µM.

Take `Cc1nn(-c2cccc(C(=O)Nc3ccc4c(c3)OC(F)(F)C(F)(F)O4)c2)c(C)c1Cl` [Int-005, 3-(4-Chloro-3,5-dimethyl-pyrazol-1-yl)-N-(2,2,3,3-tetrafluoro-1,4-benzodioxin-6-yl)benzamide]: the EC50 is above 2 µM.

For `Cc1nn(-c2cccc(C(=O)Nc3ccc4c(c3)OC(F)(F)O4)c2)c(C)c1Cl` [Int-006, 3-(4-Chloro-3,5-dimethyl-pyrazol-1-yl)-N-(2,2-difluoro-1,3-benzodioxol-5-yl)benzamide], the EC50 is above 2 µM.

As for `Cc1nn(-c2cccc(C(=O)Nc3ccc4c(c3)OCO4)c2)c(C)c1Cl` [Int-012, N-(1,3-Benzodioxol-5-yl)-3-(4-chloro-3,5-dimethyl-pyrazol-1-yl)benzamide], the EC50 was above 2 µM.

Take `COc1ccc(NC(=O)c2cccc(-n3nc(C)c(Cl)c3C)c2)cc1OC` [Int-013, 3-(4-Chloro-3,5-dimethyl-pyrazol-1-yl)-N-(3,4-dimethoxyphenyl)benzamide]: the EC50 is above 2 µM.

In the case of `Cc1nn(-c2cccc(C(=O)Nc3ccc4c(c3)NCCO4)c2)c(C)c1Cl` [Int-016, 3-(4-Chloro-3,5-dimethyl-pyrazol-1-yl)-N-(3,4-dihydro-2H-1,4-benzoxazin-6-yl)benzamide], the EC50 is above 2 µM.

`Cc1nn(-c2cccc(C(=O)Nc3ccc4c(c3)OCCN4)c2)c(C)c1Cl` [Int-018, 3-(4-chloro-3,5-dimethyl-pyrazol-1-yl)-N-(3,4-dihydro-2H-1,4-benzoxazin-7-yl)benzamide]: the EC50 is above 2 µM.

For `Cc1nn(-c2cccc(C(=O)Nc3cccc4c3OC(F)(F)O4)c2)c(C)c1Cl` [Int-022, 3-(4-Chloro-3,5-dimethyl-pyrazol-1-yl)-N-(2,2-difluoro-1,3-benzodioxol-4-yl)benzamide], the EC50 lay within 1 to 2 µM.

As for `Cc1nn(-c2cccc(C(=O)Nc3ccc4c(c3)CCCC4)c2)c(C)c1Cl` [Int-040], the EC50 was above 2 µM.

In the case of `Cc1cc2c(cc1NC(=O)c1cccc(-n3nc(C)c(Cl)c3C)c1)OCO2` [Int-041, 3-(4-Chloro-3,5-dimethyl-pyrazol-1-yl)-N-(6-methyl-1,3-benzodioxol-5-yl)benzamide], the EC50 was above 2 µM.

As to `Cc1nc2ccc(NC(=O)c3cccc(-n4nc(C)c(Cl)c4C)c3)cc2o1` [Int-045, 3-(4-Chloro-3,5-dimethyl-pyrazol-1-yl)-N-(2-methyl-1,3-benzoxazol-6-yl)benzamide], the EC50 was above 2 µM.

In the case of `Cc1nn(-c2cccc(C(=O)Nc3ccc4c(c3)COC4)c2)c(C)c1Cl` [Int-051], the EC50 is above 2 µM.

Turning to `Cc1nn(-c2cccc(C(=O)Nc3ccc4c(c3)CCO4)c2)c(C)c1Cl` [Int-052], the EC50 was above 2 µM.

On to `Cc1nn(-c2cccc(C(=O)Nc3ccc4oc(C5CC5)nc4c3)c2)c(C)c1Cl` [Int-053, 3-(4-Chloro-3,5-dimethyl-pyrazol-1-yl)-N-(2-cyclopropyl-1,3-benzoxazol-5-yl)benzamide], for which the EC50 was above 2 µM.

For the molecule `Cc1nn(-c2cccc(C(=O)Nc3ccc4oc(C(C)C)nc4c3)c2)c(C)c1Cl` [Int-061, 3-(4-Chloro-3,5-dimethyl-pyrazol-1-yl)-N-(2-isopropyl-1,3-benzoxazol-5-yl)benzamide], the EC50 is above 2 µM.

Regarding `COc1nc2cc(NC(=O)c3cccc(-n4nc(C)c(Cl)c4C)c3)ccc2o1` [Int-063, 3-(4-Chloro-3,5-dimethyl-pyrazol-1-yl)-N-(2-methoxy-1,3-benzoxazol-5-yl)benzamide], the EC50 is above 2 µM.

For the molecule `Cc1c(Cl)c(C(F)(F)F)nn1-c1cccc(C(=O)Nc2ccc3cn(C)nc3c2)c1` [Int-121, 3-[4-Chloro-5-methyl-3-(trifluoromethyl)pyrazol-1-yl]-N-(2-methylindazol-6-yl)benzamide], the EC50 was above 2 µM.

On to `Cc1nc2ccc(NC(=O)c3cccc(-n4nc(C(F)(F)F)c(Cl)c4C4CC4)c3)cc2o1` [Int-136, 3-[4-Chloro-5-cyclopropyl-3-(trifluoromethyl)pyrazol-1-yl]-N-(2-methyl-1,3-benzoxazol-6-yl)benzamide], for which the EC50 is below 1 µM.

As for `Cc1nc2ccc(NC(=O)c3cccc(-n4nc(C(F)(F)F)c(Cl)c4C)c3)cc2s1` [Int-148, 3-[4-Chloro-5-methyl-3-(trifluoromethyl)pyrazol-1-yl]-N-(2-methyl-1,3-benzothiazol-6-yl)benzamide], the EC50 was below 1 µM.

For `Cc1nc2cc(F)c(NC(=O)c3cccc(-n4nc(C(F)(F)F)c(Cl)c4C)c3)cc2o1` [Int-153, 3-[4-Chloro-5-methyl-3-(trifluoromethyl)pyrazol-1-yl]-N-(5-fluoro-2-methyl-1,3-benzoxazol-6-yl)benzamide], the EC50 is below 1 µM.

`Cc1c(Cl)c(C(F)(F)F)nn1-c1cccc(C(=O)Nc2cc3c(cc2C=O)OCO3)c1` [Int-160, 3-[4-chloro-5-methyl-3-(trifluoromethyl)pyrazol-1-yl]-N-(6-formyl-1,3-benzodioxol-5-yl)benzamide]: the EC50 is above 2 µM.

Take `Cc1c(Cl)c(C(F)(F)F)nn1-c1cccc(C(=O)Nc2cc3c(cc2CO)OCO3)c1` [Int-167, 3-[4-chloro-5-methyl-3-(trifluoromethyl)pyrazol-1-yl]-N-[6-(hydroxymethyl)-1,3-benzodioxol-5-yl]benzamide]: the EC50 is below 1 µM.

For the molecule `CC(C)(C)OC(=O)c1ccc(OCc2c(Cl)c(C(F)(F)F)nn2-c2cccc(C(=O)Nc3ccc4c(c3)OC(F)(F)O4)c2)cc1` [Int-172, Tert-butyl 4-[[4-chloro-2-[3-[(2,2-difluoro-1,3-benzodioxol-5-yl)carbamoyl]phenyl]-5-(trifluoromethyl)pyrazol-3-yl]methoxy]benzoate], the EC50 was above 2 µM.
